{"source": "patent US8420624B2", "about": "“Methods for treating or preventing symptoms of hormonal variations” (Yung Shin Pharm. Ind. Co., Ltd., priority 2007, dated 2013)", "key": {"α-adrenergic receptors": {"tested_on": "α-adrenergic receptors", "conditions": "cited from earlier work"}, "[1]": {"tested_on": "cholinergic muscarinic receptors", "conditions": "cited from earlier work"}, "histamine receptors": {"tested_on": "histamine receptors", "conditions": "cited from earlier work"}, "D2 receptors": {"target": "D2 receptors (Homo sapiens, UniProt P14416)", "sequence (P14416 whole entry)": "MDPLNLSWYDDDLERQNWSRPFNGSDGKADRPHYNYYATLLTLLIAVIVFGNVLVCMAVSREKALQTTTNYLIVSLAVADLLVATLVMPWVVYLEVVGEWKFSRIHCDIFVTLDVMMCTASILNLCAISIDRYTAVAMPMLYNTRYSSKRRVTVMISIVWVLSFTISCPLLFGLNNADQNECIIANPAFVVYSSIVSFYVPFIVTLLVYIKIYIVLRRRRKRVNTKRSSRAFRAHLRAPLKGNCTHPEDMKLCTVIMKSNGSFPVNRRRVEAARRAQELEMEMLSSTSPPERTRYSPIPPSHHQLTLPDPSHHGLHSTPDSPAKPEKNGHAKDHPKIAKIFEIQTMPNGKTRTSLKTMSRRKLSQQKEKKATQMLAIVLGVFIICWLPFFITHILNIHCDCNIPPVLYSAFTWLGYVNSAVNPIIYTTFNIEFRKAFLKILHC", "conditions": "cited from earlier work"}, "D1 dopamine receptor": {"target": "D1 dopamine receptor (Homo sapiens, UniProt P21728)", "sequence (P21728 whole entry)": "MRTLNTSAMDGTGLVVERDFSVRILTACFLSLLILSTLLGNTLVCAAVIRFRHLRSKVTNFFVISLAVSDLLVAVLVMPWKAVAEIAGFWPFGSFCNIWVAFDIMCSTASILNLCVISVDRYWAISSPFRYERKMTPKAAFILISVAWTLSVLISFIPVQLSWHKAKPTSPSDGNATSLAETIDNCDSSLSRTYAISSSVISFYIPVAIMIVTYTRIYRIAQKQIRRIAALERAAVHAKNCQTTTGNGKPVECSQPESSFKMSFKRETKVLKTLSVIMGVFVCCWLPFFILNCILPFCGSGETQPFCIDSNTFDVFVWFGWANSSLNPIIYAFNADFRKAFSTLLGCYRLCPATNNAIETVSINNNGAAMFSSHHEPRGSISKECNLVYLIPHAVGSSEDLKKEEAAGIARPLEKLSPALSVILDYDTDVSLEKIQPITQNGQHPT", "conditions": "cited from earlier work"}, "dopamine receptors": {"tested_on": "dopamine receptors", "conditions": "cited from earlier work"}, "serotonin receptors": {"tested_on": "serotonin receptors", "conditions": "cited from earlier work"}, "hot flashes [2]": {"tested_on": "hot flashes", "conditions": "cited from earlier work"}, "hot flashes [3]": {"tested_on": "hot flashes", "assay": "Case report: risperidone for hot flashes in a case with hysterectomy", "assay_type": "in vivo, human", "conditions": "for response of hot flashes to earlier treatments: person, PREMARIN 0.625 mg/day, PROZAC 20 mg/day, TOFRANIL 20 mg/day, each for 1-2 months", "description": "A person was admitted to the hospital in December of 2004 due to hot flashes, hypertension, and restlessness. They had been told that they were suffering from essential hypertension for 16 years and had taken anti-hypertension medications for several years. However, their blood pressure still fluctuated and frequently dropped below critical level after taking sublingual adalate (10 mg) for sudden onsets of high blood pressure. They had no history of psychiatric or systemic diseases, except for a total abdominal hysterectomy. On admission, it was observed that their hot flash attacks occurred many times a day, lasting a few minutes and was usually followed by high blood pressure up to 180-200/84-96 mmHg, general shivers, and anxiety for 20-60 minutes. Such clinical symptoms started and grew progressively worse.\n[…] biochemical and hematological results, such as sodium and potassium levels, 140 mmol/L and 4.0 mmol/L, respectively, were all within normal ranges. […] The plasma adrenaline, nor-adrenaline, VMA, epinephrine, and dopamine levels as well as thyroid hormones, including T3, T4, and TSH, were also normal.\nBecause estrogen withdrawal may alter the thermoregulatory set-point located in the hypothalamus, by increasing the sensitivity of hypothalamic 5-HT2A receptor, a regimen of a 5-HT2A antagonist may provide an effective therapy for symptoms of hormonal variations, such as hot flashes. Thus, the patient was treated with risperidone (2 mg/day). […] Thereafter, the dosage of anti-hypertension drugs was reduced. With the patient's permission, risperidone therapy was discontinued and hot flashes reoccurred within 2-3 days after discontinuing the treatment. The symptoms were again alleviated 3-4 days after resuming risperidone treatment."}, "D2 dopamine receptor": {"target": "D2 dopamine receptor (Homo sapiens, UniProt P14416)", "sequence (P14416 whole entry)": "as the sequence (P14416 whole entry) above", "conditions": "serial PET scans; cited from earlier work"}, "hot flashes [4]": {"tested_on": "hot flashes", "conditions": "other pilot evaluations; compared with venlafaxine and paroxetine; cited from earlier work"}, "hot flashes [5]": {"tested_on": "hot flashes", "conditions": "pilot trials; cited from earlier work"}, "hot flashes [6]": {"tested_on": "hot flashes", "conditions": "men and women; placebo 20 percent; cited from earlier work"}, "hot flashes [7]": {"tested_on": "hot flashes", "conditions": "cited from earlier work; for minimizing occurrence and severity of hot flashes versus placebo: randomized clinical trials"}, "hot flashes [8]": {"tested_on": "hot flashes", "assay": "Case report: risperidone for hot flashes in a perimenopausal case", "assay_type": "in vivo, human", "description": "Patient 3 was a person who was diagnosed with perimenopause, based on increased levels of follicle-stimulating hormone, increased variability in menstrual cycle length, development of hot flashes, and insomnia. The patient had had these symptoms for two years. […] Risperidone treatment (1 mg per night) was started. At that time, the patient was experiencing seven hot flashes per day. […] With their permission, risperidone was tapered off over two days, and the hot flashes developed again three days later."}, "hot flashes [9]": {"tested_on": "hot flashes", "assay": "Case report: risperidone for hot flashes of natural menopause", "assay_type": "in vivo, human", "description": "Patient 2 was a person who began developing intolerable hot flashes and night sweats after natural menopause that occurred seven years ago. […] One month after discontinuing hormone replacement therapy, they developed hot flashes up to ten times per day, night sweats up to three times per night that disrupted their sleep, and headaches. The patient then sought neurological consultation. The patient also suffered from headaches twice per day and fluctuating blood pressure. […] In addition, they slept well and their blood pressure stabilized. To assess the relationship between risperidone therapy and the resolution of hot flashes, risperidone was tapered off over 2 days. The patient experienced hot flashes and night sweats again two days after risperidone treatment was completely discontinued."}, "hot flashes [10]": {"tested_on": "hot flashes", "assay": "Case report: risperidone for residual hot flashes in a case with hormone replacement therapy", "assay_type": "in vivo, human", "description": "Patient 4 was a person who had developed hot flashes, with a frequency of once per hour, palpitation, insomnia, headache, restlessness, and unstable blood pressure for over seven years. Initially, the patient visited a psychiatrist for their sleep disorder and a cardiovascular specialist for their high blood pressure. A year later, because of intolerable hot flashes and other menopausal symptoms, they received hormone replacement therapy (DIVINA®). Although their hot flashes were reduced to twice per day, headaches persisted and their blood pressure fluctuated from 180 to 210/110 to 90 mm Hg despite treatment with anti-hypertension drugs. The patient was started on risperidone treatment, 1 mg at bedtime for the first two days, followed by 2 mg per night, for residual hot flashes."}}, "note": "Read-outs that look alike come from different tables or passages of the source."}
{"compound": "O=C1CCc2ccc(OCCCCN3CCN(c4cccc(Cl)c4Cl)CC3)cc2N1", "note": "[aripiprazole]", "values": [{"measurement": "affinity", "setting": "α-adrenergic receptors", "result": "moderate affinities"}, {"measurement": "affinity", "setting": "[1]", "result": "no appreciable affinity"}, {"measurement": "affinity", "setting": "histamine receptors", "result": "moderate affinities"}]}
{"compound": "CN(C)CCOC1=Cc2ccccc2Sc2ccc(Cl)cc21", "note": "[zotepine]", "values": [{"measurement": "affinity", "setting": "D2 receptors", "result": "high affinity"}, {"measurement": "affinity", "setting": "D1 dopamine receptor", "result": "high affinity"}]}
{"compound": "O=C1Cc2cc(CCN3CCN(c4nsc5ccccc45)CC3)c(Cl)cc2N1", "note": "[ziprasidone]", "values": [{"measurement": "affinity", "setting": "dopamine receptors", "result": "high affinity"}, {"measurement": "affinity", "setting": "α-adrenergic receptors", "result": "high affinity"}, {"measurement": "affinity", "setting": "serotonin receptors", "result": "high affinity"}, {"measurement": "affinity", "setting": "histamine receptors", "result": "moderate affinity"}]}
{"compound": "Clc1cccc(Cl)c1N=C1NCCN1", "note": "[clonidine]", "values": [{"measurement": "adverse effects", "setting": "hot flashes [2]; common adverse effects in clinical trials", "result": "dry mouth, dizziness, and blurred vision"}, {"measurement": "difference from placebo effect, self-reported hot flash frequency", "setting": "hot flashes [2]; men, double blind cross over study", "result": "not statistically significant"}, {"measurement": "efficacy against hot flashes versus placebo", "setting": "hot flashes [2]; randomized clinical trials", "result": "moderately more efficacious than placebo"}, {"measurement": "decrease of hot flash frequency greater than that seen with placebo", "setting": "hot flashes [2]; women", "result": "10-15%"}]}
{"compound": "CN(C)CCCN1c2ccccc2CCc2ccccc21.Cl", "note": "[TOFRANIL®]", "values": [{"measurement": "response of hot flashes to earlier treatments", "setting": "hot flashes [3]", "result": "limited success"}]}
{"compound": "OCCOCCN1CCN(C2=Nc3ccccc3Sc3ccccc32)CC1", "note": "[quetiapine]", "values": [{"measurement": "dissociation from the D2 receptor", "setting": "D2 dopamine receptor", "result": "rapidly disassociates"}]}
{"compound": "CN1CCN2c3ncccc3Cc3ccccc3C2C1", "note": "(stereo not drawn) [mirtazapine]", "values": [{"measurement": "alleviation of hot flashes", "setting": "hot flashes [4]", "result": "alleviate hot flashes to a similar degree"}]}
{"compound": "NCC1(CC(=O)O)CCCCC1", "note": "[gabapentin]", "values": [{"measurement": "reduction of the incidence of hot flashes", "setting": "hot flashes [5]", "result": "42%-70%"}]}
{"compound": "CC(=O)O[C@]1(C(C)=O)CC[C@H]2[C@@H]3C=C(C)C4=CC(=O)CC[C@]4(C)[C@H]3CC[C@@]21C", "note": "[megestrol acetate]", "values": [{"measurement": "reduction in self-reported hot flash frequency", "setting": "hot flashes [6]", "result": "~80", "unit": "%"}]}
{"compound": "COc1ccc(C(CN(C)C)C2(O)CCCCC2)cc1", "note": "(stereo not drawn) [venlafaxine]", "values": [{"measurement": "reduction in hot-flash scores", "setting": "hot flashes [7]; low-dose (37.5 mg/day), placebo 27%", "result": 37, "unit": "%"}, {"measurement": "reduction in hot-flash scores", "setting": "hot flashes [7]; moderate and high doses (75 and 150 mg/day)", "result": 61, "unit": "%"}, {"measurement": "minimizing occurrence and severity of hot flashes versus placebo", "setting": "hot flashes [7]", "result": "more effective than placebo"}]}
{"compound": "CNCCC(Oc1ccc(C(F)(F)F)cc1)c1ccccc1", "note": "(stereo not drawn) [Fluoxetine]", "values": [{"measurement": "reduction in hot-flash scores", "setting": "hot flashes [7]; 20 mg/day, placebo 36%, P=0.02", "result": 50, "unit": "%"}, {"measurement": "response of hot flashes to earlier treatments", "setting": "hot flashes [3]", "result": "limited success"}]}
{"compound": "estrogen", "values": [{"measurement": "response to estrogen therapy", "setting": "hot flashes [8]; perimenopausal person", "result": "responded well"}]}
{"compound": "Fc1ccc([C@@H]2CCNC[C@H]2COc2ccc3c(c2)OCO3)cc1", "note": "[paroxetine]", "values": [{"measurement": "minimizing occurrence and severity of hot flashes versus placebo", "setting": "hot flashes [7]", "result": "more effective than placebo"}]}
{"compound": "Cc1nc2n(c(=O)c1CCN1CCC(c3noc4cc(F)ccc34)CC1)CCCC2", "note": "[risperidone]", "values": [{"measurement": "hot flashes at decreased dosage", "setting": "hot flashes [8]; risperidone 0.25 mg or less per day, three months later", "result": "still markedly eliminated"}, {"measurement": "hot flashes after resuming treatment", "setting": "hot flashes [8]; risperidone 1 mg daily resumed", "result": "no longer experienced hot flashes"}, {"measurement": "quality of sleep and life", "setting": "hot flashes [8]; risperidone 1 mg daily resumed", "result": "improved"}, {"measurement": "frequency and intensity of hot flashes", "setting": "hot flashes [8]; risperidone 1 mg per night, three days after start, before: seven hot flashes per day", "result": "markedly reduced"}, {"measurement": "time to return of hot flashes after tapering off", "setting": "hot flashes [8]; risperidone tapered off over two days", "result": "three"}, {"measurement": "hot flashes after resuming treatment", "setting": "hot flashes [9]; risperidone 2 mg daily resumed", "result": "has not suffered another hot flash since"}, {"measurement": "blood pressure", "setting": "hot flashes [9]; risperidone 2 mg per day", "result": "stabilized"}, {"measurement": "sleep", "setting": "hot flashes [9]; risperidone 2 mg per day", "result": "slept well"}, {"measurement": "occurrence of hot flashes", "setting": "hot flashes [9]; risperidone 2 mg per day, by day 7", "result": "completely eliminated"}, {"measurement": "occurrence of hot flashes", "setting": "hot flashes [9]; risperidone 2 mg per day, two days after start, before: up to ten times per day", "result": "reduced markedly"}, {"measurement": "time to return of hot flashes and night sweats after treatment completely discontinued", "setting": "hot flashes [9]; risperidone tapered off over 2 days", "result": "two"}, {"measurement": "associated symptoms (palpitation, anxiety)", "setting": "hot flashes [3]; risperidone 2 mg/day", "result": "improved significantly"}, {"measurement": "hot flash frequency", "setting": "hot flashes [3]; risperidone 2 mg/day, after three days of treatment, before: many times a day", "result": "reduced markedly to a frequency of once per 1-2 weeks"}, {"measurement": "time to reoccurrence of hot flashes after discontinuing treatment", "setting": "hot flashes [3]; risperidone discontinued", "result": "2 to 3", "unit": "days"}, {"measurement": "time to alleviation of symptoms after resuming treatment", "setting": "hot flashes [3]; risperidone resumed", "result": "3 to 4", "unit": "days"}, {"measurement": "residual hot flashes", "setting": "hot flashes [10]; risperidone 1 mg at bedtime for two days, then 2 mg per night, three days after start", "result": "completely eliminated"}, {"measurement": "blood pressure", "setting": "hot flashes [10]; risperidone 1 mg then 2 mg per night", "result": "stabilized within the normal range"}]}
